In the Deep4Chem optical property database one finds photoluminescence quantum yield data, which are given here for 50 molecules.

A short description of this data set: photoluminescence quantum yield (fraction); solvent given as SMILES.
The mark [1] stands for this setting: in O=P(c1ccccc1)(c1ccccc1)c1ccccc1Oc1ccccc1P(=O)(c1ccccc1)c1ccccc1.

As to `C(=C\c1ccc(-c2ccncc2)cc1)/c1ccc(-c2ccncc2)cc1`, for the setting “in ClCCl”, the photoluminescence quantum yield turned out to be 0.97.
Regarding `N#Cc1ccc(/C=C/c2ccc3ccc4cccc5ccc2c3c45)cc1`, the photoluminescence quantum yield is, setting by setting: (in CC1CCCCC1) 0.8; (in CC#N) 0.26; (in CO) 0.26; (in Cc1ccccc1) 0.79; (in ClC(Cl)Cl) 0.3.
Regarding `CCCCCc1ccc(C#Cc2cc(C#Cc3ccc(CCCCC)cc3)c3ccc4c(C(=O)c5ccccc5)cc(C#Cc5ccc(CCCCC)cc5)c5ccc2c3c54)cc1`, the photoluminescence quantum yield (in ClCCl) turned out to be 0.43.
Under setting [1], `c1ccc(-c2nc(-c3ccccc3)nc(-n3c4ccccc4c4cc(-n5c6ccccc6c6ccccc65)ccc43)n2)cc1` gave a photoluminescence quantum yield of 0.62.
In the case of `C(=C\c1c[nH]c2ccc(Oc3ccccc3)cc12)/C1=[NH+]c2cccc3cccc1c23`, where the note is “in CO”, the photoluminescence quantum yield worked out at 0.0644.
For `Oc1ccccc1/C=N/CC/N=C/c1ccccc1O`, the photoluminescence quantum yield (in CC#N) was 0.053.
Molecule `CC(=O)c1ccn2c3c(c(/C=C/c4cc[n+](C)cc4)c2c1)CN(C)C3=O` yielded a photoluminescence quantum yield (in O) of 0.041.
`N#Cc1ccc(-c2ccc3c(c2)c2cc(-c4ccc(C#N)cc4)ccc2c2c3nc(-c3ccc(-c4ccc(N(c5ccccc5)c5ccccc5)cc4)cc3)n2-c2ccccc2)cc1` returned a photoluminescence quantum yield (in C1CCOC1) of 0.54, a photoluminescence quantum yield (in CC#N) of 0.51, a photoluminescence quantum yield (in CCCCCC) of 0.82 and a photoluminescence quantum yield (in CCOCC) of 0.9.
For the molecule `C(#Cc1nc(C#Cc2cccs2)c(C#Cc2cccs2)c(C#Cc2cccs2)c1C#Cc1cccs1)c1cccs1`, the photoluminescence quantum yield (in ClCCl) turned out to be 0.48.
`C[P+](c1c2ccccc2cc2ccccc12)(c1c2ccccc2cc2ccccc12)c1c2ccccc2cc2ccccc12` yielded a photoluminescence quantum yield (in C1CCOC1) of 0.0077.
As to `O=c1c2cc(F)ccc2nc2n1[B-](F)(F)[n+]1ccccc1-2`, the photoluminescence quantum yield by setting is: (in CC#N) 0.86; (in ClCCl) 0.99.
Where the note is “in Cc1ccccc1”, `CC(C)c1cc(C(C)C)c(B2c3ccccc3Oc3cc(N4c5ccccc5C5(c6ccccc6-c6ccccc65)c5ccccc54)ccc32)c(C(C)C)c1` registered a photoluminescence quantum yield of 0.76.
With `F[B-]1(F)n2c(c(-c3ccccc3)c(-c3ccccc3)c2-c2ccccc2)C(c2ccccc2)=C2C(c3ccccc3)=C(c3ccccc3)C(c3ccccc3)=[N+]21`, the photoluminescence quantum yield (in C1CCOC1) came out at 0.2.
`COc1ccc2c(c1)cc(C)c1c3ccccc3[nH]c21` registered a photoluminescence quantum yield (in ClCCl) of 0.109.
Regarding `COc1ccc(-c2oc3cccc4c5c(-c6ccc(OC)c(OC)c6)/c(=N/S(=O)(=O)C(F)(F)F)oc6cccc(c2c34)c65)cc1OC`, the photoluminescence quantum yield (in ClC(Cl)Cl) stood at 0.1.
Take `Cc1cc(C)c(C2=C3C=C(/C=C/C(=O)OCc4ccccc4)C=[N+]3[B-](F)(F)n3cc(/C=C/C(=O)OCc4ccccc4)cc32)c(C)c1`: the photoluminescence quantum yield (in ClCCl) was 0.35.
Take `F[B-]1(F)n2c(ccc2-c2cccs2)C(c2ccc(Br)cc2)=C2C=CC(c3cccs3)=[N+]21`: the photoluminescence quantum yield (in ClC(Cl)Cl) came out at 0.82.
Where the note is “in ClC(Cl)Cl”, `CCCN1c2ccccc2Sc2cc(/C=C\c3cc(=O)oc4ccc(C)cc34)ccc21` registered a photoluminescence quantum yield of 0.76.
As to `COc1ccc(Oc2ccc3c4c(cccc24)C(=O)N(c2c(C(C)C)cccc2C(C)C)C3=O)cc1`, the photoluminescence quantum yield (in ClCCl) came to 0.002.
On to `COc1cccc(-c2nc(-c3ccccc3)c(-c3ccccc3)[nH]2)c1`, for which the photoluminescence quantum yield (in CO) came to 0.28.
`S=P1(c2ccccc2)c2cccc3c4c5ccccc5c5ccccc5c4c4ccc1n4c23` (stereo not drawn) displayed a photoluminescence quantum yield (in ClCCl) of 0.24.
Same read-out and setting: next, `CC(C)(C)NC(=O)c1ccc(-c2cc3ccccc3o2)c2ccc3c4ccccc4c4ccccc4c3c12`: 0.44; `C(#Cc1c2ccccc2c(-c2ccccc2)c2cc3ccccc3cc12)c1ccccc1`: 0.79; `CCCCCCCCCCCCN1C(=O)c2c(c3ccc4cc(-c5ccccc5)c(OC)cc4c3c3c2ccc2cc(-c4ccccc4)c(OC)cc23)C1=O`: 0.148.
`CCN1c2ccc(-c3cc(C(F)(F)F)[nH]n3)cc2Sc2cc(-c3cc(C(F)(F)F)[nH]n3)ccc21`: the photoluminescence quantum yield turned out to be 0.46 (in C1CCOC1); 0.46 (in CC#N); 0.75 (in CN(C)C=O); 0.56 (in ClCCl); 0.49 (in c1ccccc1).
For the molecule `Fc1c(F)c(F)c([B-]2(c3c(F)c(F)c(F)c(F)c3F)Oc3c(ccc4c5c(ccc34)C=[N+](c3ccccc3)[B-](c3c(F)c(F)c(F)c(F)c3F)(c3c(F)c(F)c(F)c(F)c3F)O5)C=[N+]2c2ccccc2)c(F)c1F`, the photoluminescence quantum yield turned out to be 0.81 (in Cc1ccccc1) and 0.8 (in ClCCl).
Molecule `C(=C\c1cnc2ccccc2n1)/c1ccc(-c2ccc(N(c3ccccc3)c3ccccc3)cc2)cc1` returned a photoluminescence quantum yield (in ClCCl) of 0.35.
Take `CN(C)c1ccc2nc(-c3ccc(C(=O)Nc4ccccc4)cc3)sc2c1`: the photoluminescence quantum yield runs as follows: (in C1CCCCC1) 0.89; (in CC#N) 0.92; (in CC(C)O) 0.91; (in CO) 0.76; (in CS(C)=O) 0.99; (in ClC(Cl)Cl) 0.98. Also, where the note is “in c1ccccc1”, the photoluminescence quantum yield was determined as 0.92.
In turn, `O=P1(c2ccccc2)c2cccc3c4c5ccccc5c5ccccc5c4c4ccc1n4c23` (stereo not drawn) registered a photoluminescence quantum yield (in ClCCl) of 0.97.
Under “in ClCCl”, `CCCCC(CC)Cn1c2cc(-c3ccc(N(c4ccccc4)c4ccccc4)cc3)c(C#N)cc2c2cc(C#N)c(-c3ccc(N(c4ccccc4)c4ccccc4)cc3)cc21` (stereo not drawn) registered a photoluminescence quantum yield of 0.8.
As for `Cc1cc(-n2c3ccccc3c3cc4c(cc32)C2c3ccccc3C4c3ccccc32)ccc1-c1nc(-c2ccccc2)nc(-c2ccccc2)n1`, the photoluminescence quantum yield was 0.8 (in Cc1ccccc1) and 0.51 under setting [1].
For the molecule `N#Cc1c(/C=C/c2ccc(N(c3ccccc3)c3ccccc3)cc2)cc(-c2ccccc2)cc1N1CCCCC1`, the photoluminescence quantum yield (in CS(C)=O) is 0.6.
On the same count and under the same terms, the same measure for `CCOC(=O)C1=C(N)n2c(=O)c3ccccc3c(=O)n2C1c1ccc([N+](=O)[O-])cc1` (stereo not drawn): 0.049.
As for `COC(=O)c1nc(-c2ccccc2)oc1C`, the photoluminescence quantum yield is, setting by setting: (in C1CCCCC1) 0.36; (in CC#N) 0.38; (in CCO) 0.47; (in CCOC(C)=O) 0.44; (in O) 0.34.
For the molecule `CC(=O)OCCN1C(=O)c2cccc3c(Oc4ccccc4C)ccc(c23)C1=O`, the photoluminescence quantum yield (in ClC(Cl)Cl) stood at 0.12.
Regarding `CC(C)(C)c1ccc2c(c1)c1cc(C(C)(C)C)ccc1n2-c1ccccc1-c1nc(-c2ccccc2-n2c3ccc(C(C)(C)C)cc3c3cc(C(C)(C)C)ccc32)nc(-c2ccccc2P(=O)(c2ccccc2)c2ccccc2)n1`, the photoluminescence quantum yield under setting [1] turned out to be 0.45.
`CCOC(=O)c1sc2nc3c(c(C#N)c2c1N)CCCC3`: the photoluminescence quantum yield (in c1ccccc1) amounted to 0.046.
The molecule `CC[Si](C#Cc1c2c(=O)c3ccccc3c2c(C#C[Si](CC)(CC)CC)c2c(=O)c3ccccc3c12)(CC)CC` showed a photoluminescence quantum yield (in ClC(Cl)Cl) of 0.08.
Turning to `CC(C)[Si](C#Cc1c2ccccc2c(C#C[Si](C(C)C)(C(C)C)C(C)C)c2nc3c4ccccc4c(=O)c4ccccc4c3nc12)(C(C)C)C(C)C`, the photoluminescence quantum yield (in ClCCl) was found to be 0.75.
The molecule `COc1ccccc1-c1nc(-c2ccccc2)c(-c2ccccc2)[nH]1` had a photoluminescence quantum yield (in CO) of 0.29.
On to `CCCCN1c2ccccc2B(c2ccccc2C(F)(F)F)c2ccccc21`, for which the photoluminescence quantum yield (in ClCCl) is 0.9.
As to `O=C1c2ccccc2-c2ccc(N3CCN(c4ccccc4)CC3)c3cccc1c23`, the photoluminescence quantum yield was 0.424 (in C1CCCCC1); 0.123 (in C1CCOC1); 0.42 (in C1COCCO1); 0.009 (in CC1COC(=O)O1); 0.005 (in CC#N); 0.011 (in CC(C)=O). Also, the photoluminescence quantum yield reads like this: (in CCCCCCCCO) 0.018; (in CCCCCO) 0.017; (in CCCCO) 0.014; (in CCCO) 0.021; (in CCO) 0.007; (in CCOC(C)=O) 0.108. For the same molecule, the photoluminescence quantum yield came to 0.005 (in CN(C)C=O); 0.004 (in CO); 0.004 (in CS(C)=O); 0.431 (in Cc1ccccc1); 0.348 (in ClC(Cl)Cl).
With `COc1ccc(-c2csc(/C(C#N)=N\Nc3ccc(C#N)cc3)n2)cc1`, the photoluminescence quantum yield is, setting by setting: (in CC#N) 0.001; (in CCO) 0.002; (in CN(C)C=O) 0; (in Cc1ccccc1) 0.002; (in ClCCl) 0.002.
For the molecule `COc1ccc(-c2cc3c(s2)c(C(C)=O)cc(=O)n3Cc2ccccc2)cc1`, the photoluminescence quantum yield runs as follows: (in CC#N) 0.61; (in ClCCl) 0.99.
`c1ccc(N(c2ccccc2)c2ccc(-c3ccncn3)cc2)cc1` showed a photoluminescence quantum yield (in ClCCl) of 0.55.
In the case of `Cc1cc(C)c2nc3[nH]c(=O)[nH]c(=O)c3nc2c1`, for the setting “in CC#N”, the photoluminescence quantum yield turned out to be 0.043.
In turn, `CC(C)(C)NC1=CC2=c3cc(NC(C)(C)C)c4nc(C(F)(F)C(F)(F)C(F)(F)F)nc5c(NC(C)(C)C)cc(c3c54)C3=CC(NC(C)(C)C)=C4N=C(C(F)(F)C(F)(F)C(F)(F)F)N=C1C4C32` (stereo not drawn) displayed a photoluminescence quantum yield (in C1CCOC1) of 0.25.
`CC1=C(c2ccccc2)C(C)=[N+]2C1=C(c1ccccc1)c1c(C)c(-c3ccccc3)c(C)n1[B-]2(F)F` had a photoluminescence quantum yield (in Cc1ccccc1) of 0.325.
Take `c1ccc(-c2cc(-c3ccc(N4c5ccccc5C5(c6ccccc64)c4ccccc4N(c4ccc(-c6cc(-c7ccccc7)nc(-c7ccccc7)n6)cc4)c4ccccc45)cc3)nc(-c3ccccc3)n2)cc1`: under setting [1], the photoluminescence quantum yield is 0.73.
On to `CCC1=C(C)C2=Cc3c4ccccc4c4n3[B-](c3ccncc3)(Oc3ccccc3-4)[N+]2=C1C=Cc1ccc(OC)cc1` (stereo not drawn), for which the photoluminescence quantum yield is, setting by setting: (in CC#N) 0.37; (in CCCCCC) 0.36; (in Cc1ccccc1) 0.35; (in ClCCl) 0.35.
